This note sets out measurements from ChEMBL document CHEMBL1152527, “Tessaric acid derivatives induce G2/M cell cycle arrest in human solid tumor cell lines” (2009).

Common to all, as to format: functional
One assay concerns A2780. Put plainly: Growth inhibition of human A2780 cells after 48 hrs by sulforhodamine B assay. As to conditions: A2780, 48 h. A general note: Sulforhodamine B stains cellular protein and so reports cell mass.
The subject of another assay is HBL-100. The experiment in a line: Growth inhibition of human HBL100 cells after 48 hrs by sulforhodamine B assay. As to conditions: HBL-100, 48 h.
The test system of another assay is WiDr. The experiment in a line: Growth inhibition of human WiDr cells after 48 hrs by sulforhodamine B assay.
For a further assay, the system named is HeLa. The experiment in a line: Growth inhibition of human HeLa cells after 48 hrs by sulforhodamine B assay.
Another assay deals with SW1573. Put plainly: Growth inhibition of human SW1573 cells after 48 hrs by sulforhodamine B assay. As to conditions: SW1573, 48 h.
The subject of a further assay is T47D. The experiment in a line: Growth inhibition of human T47D cells after 48 hrs by sulforhodamine B assay. As to conditions: for GI50: read-out: GI50.

Structures are written as SMILES. Some results are limits rather than exact numbers.

By pGI50 is commonly meant −log10 of the GI50, conventionally taken in molar units. As for `C=C(C(=O)O)[C@@H]1CC[C@@]2(C)CCCC(C)=C2C1`, the pGI50 in the assay on A2780, with HBL-100, with WiDr, in the assay with HeLa, with SW1573 and in the assay with T47D was 4 each time. The GI50 in the assay on A2780 (read-out: GI50), in the assay on HBL-100 (read-out: GI50), with WiDr (read-out: GI50), with HeLa (read-out: GI50), with SW1573 (read-out: GI50) and with T47D was above 100 µM in each case.

As for `C=C(C(=O)OC)[C@@H]1CC[C@@]2(C)CCCC(C)=C2C1`, the GI50 with A2780 (read-out: GI50) was 18 µM; in the assay on A2780 (read-out: pGI50 (converted)), 4.74 µM; with HBL-100 (read-out: GI50) it was 14 µM; with HBL-100 (read-out: pGI50 (converted)), 4.86 µM; in the assay with WiDr (read-out: GI50), 38 µM; in the assay with WiDr (read-out: pGI50 (converted)) it was 4.45 µM. Besides, the GI50 is 13 µM in the assay with HeLa (read-out: GI50); 4.88 µM in the assay with HeLa (read-out: pGI50 (converted)); 18 µM in the assay with SW1573 (read-out: GI50); 4.74 µM in the assay on SW1573 (read-out: pGI50 (converted)); 35 µM in the assay with T47D. The pGI50 in the assay on T47D is 4.48.

As for `CC[C@@]1(O)C(=O)OCc2c1cc1n(c2=O)Cc2cc3ccccc3nc2-1` [CAMPTOTHECIN], the GI50 in the assay with A2780 (read-out: GI50) came to 0.46 µM; in the assay on HBL-100 (read-out: GI50), 0.23 µM; in the assay on WiDr (read-out: GI50) it was 1.7 µM; in the assay with HeLa (read-out: GI50) it was 1.3 µM; in the assay on SW1573 (read-out: GI50), 0.21 µM; in the assay with T47D, 1.9 µM.

Regarding `O=c1[nH]cc(F)c(=O)[nH]1` [FLUOROURACIL], the GI50 with A2780 (read-out: GI50) stood at 4.4 µM; with HBL-100 (read-out: GI50) it was 5.5 µM; with WiDr (read-out: GI50), 50 µM; in the assay with HeLa (read-out: GI50), 19 µM; in the assay with SW1573 (read-out: GI50), 4.1 µM; in the assay with T47D, 29 µM.

For the compound `C=C(C(=O)O)[C@@H]1CC[C@@]2(C)CCC[C@@](C)(O)[C@@H]2C1` [ILICIC ACID], the pGI50 in the assay with A2780, with HBL-100, with WiDr, with HeLa, in the assay on SW1573 and in the assay with T47D was 4 in each case. Also, the GI50 in the assay with A2780 (read-out: GI50), in the assay with HBL-100 (read-out: GI50), in the assay with WiDr (read-out: GI50), with HeLa (read-out: GI50), in the assay on SW1573 (read-out: GI50) and with T47D was above 100 µM in each case.

For the compound `C=C(CO)[C@@H]1CC[C@@]2(C)CCC[C@@](C)(O)[C@@H]2C1` [ILICIC ALCOHOL], the pGI50 in the assay with A2780, in the assay on HBL-100, in the assay on WiDr, with HeLa, with SW1573 and with T47D was 4 in each case. The GI50 in the assay on A2780 (read-out: GI50), in the assay with HBL-100 (read-out: GI50), in the assay with WiDr (read-out: GI50), in the assay with HeLa (read-out: GI50), with SW1573 (read-out: GI50) and in the assay on T47D was above 100 µM throughout.

Take `C=C(C(=O)O)[C@@H]1CCC2=CC(=O)C[C@H](C)[C@@]2(C)C1` [TESSARIC ACID]: the negative logarithm of the GI50 (pGI50) in the assay on A2780, in the assay with HBL-100, in the assay with WiDr, in the assay with HeLa, in the assay with SW1573 and with T47D was 4 in each case. In addition, the GI50 in the assay with A2780 (read-out: GI50), in the assay on HBL-100 (read-out: GI50), in the assay on WiDr (read-out: GI50), with HeLa (read-out: GI50), in the assay with SW1573 (read-out: GI50) and with T47D was above 100 µM each time.

For the compound `C=C(C(=O)OC)[C@@H]1CC[C@@]2(C)CCC[C@@](C)(O)[C@@H]2C1` [VACHANIC ACID METHYLESTER], the pGI50 was found to be 4 in the assay with A2780; 4.13 in the assay on HBL-100; 4 in the assay on WiDr; 4 in the assay with HeLa; 4 in the assay with SW1573; 4 in the assay with T47D. In addition, the GI50 in the assay with A2780 (read-out: GI50) is above 100 µM; in the assay on HBL-100 (read-out: GI50), 74 µM; in the assay on WiDr (read-out: GI50), above 100 µM; in the assay with HeLa (read-out: GI50), above 100 µM; with SW1573 (read-out: GI50), above 100 µM; with T47D, above 100 µM.
